The values that follow come from ChEMBL document CHEMBL1130519, “BN 80245: An E-ring modified camptothecin with potent antiproliferative and topoisomerase I inhibitory activities” (Bioorg Med Chem Lett, 1997).

The test system of the test is L1210. As to the kind of experiment: Compound was evaluated for cytotoxic activity on L1210 murine leukemia cells. The test is classed as functional, cell-based. Conditions: Mus musculus.

With `CC[C@@]1(O)C(=O)OCc2c1cc1n(c2=O)Cc2cc3ccccc3nc2-1` [CAMPTOTHECIN], the midpoint of inhibition, the IC50, lay at 126 nM.

`CCC1(O)CC(=O)OCc2c1cc1n(c2=O)Cc2cc3ccccc3nc2-1` (stereo not drawn) came in with an IC50 of 16.2 nM.

As for `CC[C@@]1(O)C(=O)OCc2c1cc1n(c2=O)Cc2cc3c(CN(C)C)c(O)ccc3nc2-1` [TOPOTECAN], the IC50 amounted to 601 nM.
